Reference: patent US20250270180A1, “MEK INHIBITORS AND THERAPEUTIC USES THEREOF” (Immuneering Corporation, priority 2020, published 2025)
Where two headings read alike, the source gives them in different places.

Experiments:
CYP450 1A2 = biological target: T1, CYP450 1A2 (Homo sapiens, UniProt P05177); test: CYP450 panel, 1A2; format: in vitro ADME; conditions: 10 μM; substrate phenacetin
T1 sequence (P05177 1-516): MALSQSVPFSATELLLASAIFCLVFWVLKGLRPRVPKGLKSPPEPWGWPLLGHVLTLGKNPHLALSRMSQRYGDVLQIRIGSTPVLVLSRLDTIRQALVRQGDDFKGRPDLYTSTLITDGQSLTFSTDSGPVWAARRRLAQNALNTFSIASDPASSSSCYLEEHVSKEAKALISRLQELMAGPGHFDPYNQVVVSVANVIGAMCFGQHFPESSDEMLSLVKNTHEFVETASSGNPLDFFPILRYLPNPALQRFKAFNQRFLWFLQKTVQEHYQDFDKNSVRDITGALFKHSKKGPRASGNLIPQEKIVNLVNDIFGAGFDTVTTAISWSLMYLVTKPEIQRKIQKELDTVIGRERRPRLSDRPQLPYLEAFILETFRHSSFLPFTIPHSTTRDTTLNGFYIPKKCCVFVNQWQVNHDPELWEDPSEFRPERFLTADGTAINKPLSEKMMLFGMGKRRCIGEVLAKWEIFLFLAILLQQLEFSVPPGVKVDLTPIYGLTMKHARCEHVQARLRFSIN

CYP450 2C9 = CYP450 2C9 (Homo sapiens, UniProt P11712); test: CYP450 panel, 2C9; conditions: 10 μM; substrate Diclofenac
Sequence of CYP450 2C9 (P11712 whole entry): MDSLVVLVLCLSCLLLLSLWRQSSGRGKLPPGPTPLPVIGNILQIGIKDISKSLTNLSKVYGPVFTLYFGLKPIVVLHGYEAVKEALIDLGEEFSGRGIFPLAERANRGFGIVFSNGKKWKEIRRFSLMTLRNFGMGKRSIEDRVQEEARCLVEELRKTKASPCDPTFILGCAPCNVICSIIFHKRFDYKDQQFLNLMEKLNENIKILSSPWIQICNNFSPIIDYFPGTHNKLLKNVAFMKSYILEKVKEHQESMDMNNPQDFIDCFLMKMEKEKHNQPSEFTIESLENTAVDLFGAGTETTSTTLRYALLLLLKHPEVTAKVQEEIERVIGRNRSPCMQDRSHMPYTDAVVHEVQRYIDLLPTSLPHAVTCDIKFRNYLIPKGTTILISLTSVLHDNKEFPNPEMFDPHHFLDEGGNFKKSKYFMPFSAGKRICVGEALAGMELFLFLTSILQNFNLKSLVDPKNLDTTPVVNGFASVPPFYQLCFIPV

CYP450 3A4 = CYP450 3A4 (Homo sapiens, UniProt P08684); test: CYP450 panel, 3A4; conditions: 10 μM; for 3A4*: substrate midazolam; for 3A4^: substrate testosterone
Sequence of CYP450 3A4 (P08684 whole entry): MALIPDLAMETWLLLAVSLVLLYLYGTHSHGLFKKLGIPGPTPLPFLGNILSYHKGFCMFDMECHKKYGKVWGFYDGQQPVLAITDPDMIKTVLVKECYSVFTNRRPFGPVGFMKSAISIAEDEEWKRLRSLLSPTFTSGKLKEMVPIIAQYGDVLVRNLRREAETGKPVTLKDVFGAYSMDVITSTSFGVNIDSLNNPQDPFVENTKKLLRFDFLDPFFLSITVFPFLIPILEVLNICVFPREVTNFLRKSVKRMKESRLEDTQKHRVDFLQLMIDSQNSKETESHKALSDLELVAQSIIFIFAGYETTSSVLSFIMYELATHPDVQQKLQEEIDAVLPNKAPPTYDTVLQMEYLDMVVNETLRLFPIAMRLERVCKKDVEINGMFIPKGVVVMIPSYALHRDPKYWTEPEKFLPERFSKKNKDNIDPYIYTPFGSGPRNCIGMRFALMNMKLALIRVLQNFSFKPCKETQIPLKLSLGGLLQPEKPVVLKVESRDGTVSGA

[1] = Microsome stability, human; format: in vitro ADME; conditions: microsomes, 2 μM
CYP450 2C19 = CYP450 2C19 (Homo sapiens, UniProt P33261); test: CYP450 panel, 2C19; conditions: 10 μM; substrate mephenytoin
Sequence of CYP450 2C19 (P33261 whole entry): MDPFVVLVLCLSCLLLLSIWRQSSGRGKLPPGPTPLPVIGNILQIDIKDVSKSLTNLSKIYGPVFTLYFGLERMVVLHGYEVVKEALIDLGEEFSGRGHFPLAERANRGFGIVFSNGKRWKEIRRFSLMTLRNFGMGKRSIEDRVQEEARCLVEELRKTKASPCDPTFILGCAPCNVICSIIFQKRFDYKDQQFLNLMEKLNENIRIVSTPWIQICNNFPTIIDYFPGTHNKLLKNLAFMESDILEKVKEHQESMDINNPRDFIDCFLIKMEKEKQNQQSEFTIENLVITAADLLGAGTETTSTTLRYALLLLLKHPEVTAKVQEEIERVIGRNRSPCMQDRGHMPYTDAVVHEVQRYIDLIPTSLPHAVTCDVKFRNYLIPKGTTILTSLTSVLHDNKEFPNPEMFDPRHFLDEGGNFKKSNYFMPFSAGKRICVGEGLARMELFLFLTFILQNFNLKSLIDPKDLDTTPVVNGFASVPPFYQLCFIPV

[2] = system: A549 CRAF BP (MEK phosphorylation); test: A549-CRAF BP 100 nM, 2 h (pMEK); format: cell-based; conditions: Homo sapiens, A549, 2 h, phospho:total ratio normalized to DMSO control
Method: (§1) A549 or […] cells were treated in duplicate for two hours with compounds at varying concentrations. After two hours, the cells were lysed, snap frozen, and stored at −80° C. After storage, the lysate was quantified with the Bradford assay. Before the lysates were prepared to run on the Jess, the lysates were diluted to 1 mg/mL for pERK analysis and 1.5 mg/mL pMEK analysis using quantitative Western blotting. ERK and MEK phosphorylation levels were estimated by taking the ratio of phospho-protein to total protein and normalizing to the DMSO control. The results of this study are described in Tables 14-16.

Plasma stability, human = format: in vitro ADME; conditions: 2 μM
CYP450 2D6 = CYP450 2D6 (Homo sapiens, UniProt P10635); test: CYP450 panel, 2D6; conditions: 10 μM; substrate dextromethophan
Sequence of CYP450 2D6 (P10635 whole entry): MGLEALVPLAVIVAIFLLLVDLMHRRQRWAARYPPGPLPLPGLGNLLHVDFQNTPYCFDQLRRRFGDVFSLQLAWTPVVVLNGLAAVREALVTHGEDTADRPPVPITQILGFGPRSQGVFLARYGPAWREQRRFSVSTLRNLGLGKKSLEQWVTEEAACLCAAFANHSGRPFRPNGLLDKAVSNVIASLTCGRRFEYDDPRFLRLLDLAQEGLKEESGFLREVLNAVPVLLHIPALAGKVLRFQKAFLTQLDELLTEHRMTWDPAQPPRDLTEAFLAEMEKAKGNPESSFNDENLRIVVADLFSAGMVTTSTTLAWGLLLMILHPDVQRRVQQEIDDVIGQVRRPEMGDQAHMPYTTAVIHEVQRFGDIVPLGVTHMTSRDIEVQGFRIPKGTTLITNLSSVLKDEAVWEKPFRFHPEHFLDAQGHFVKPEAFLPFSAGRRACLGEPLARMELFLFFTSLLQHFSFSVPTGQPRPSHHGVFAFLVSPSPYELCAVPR

[3] = Plasma stability, CD-1 mouse; format: in vitro ADME; conditions: 2 μM
CYP450 2C8 = biological target: T2, CYP450 2C8 (Homo sapiens, UniProt P10632); test: CYP450 panel, 2C8; conditions: 10 μM; substrate amodiaquine
T2 sequence (P10632 1-490): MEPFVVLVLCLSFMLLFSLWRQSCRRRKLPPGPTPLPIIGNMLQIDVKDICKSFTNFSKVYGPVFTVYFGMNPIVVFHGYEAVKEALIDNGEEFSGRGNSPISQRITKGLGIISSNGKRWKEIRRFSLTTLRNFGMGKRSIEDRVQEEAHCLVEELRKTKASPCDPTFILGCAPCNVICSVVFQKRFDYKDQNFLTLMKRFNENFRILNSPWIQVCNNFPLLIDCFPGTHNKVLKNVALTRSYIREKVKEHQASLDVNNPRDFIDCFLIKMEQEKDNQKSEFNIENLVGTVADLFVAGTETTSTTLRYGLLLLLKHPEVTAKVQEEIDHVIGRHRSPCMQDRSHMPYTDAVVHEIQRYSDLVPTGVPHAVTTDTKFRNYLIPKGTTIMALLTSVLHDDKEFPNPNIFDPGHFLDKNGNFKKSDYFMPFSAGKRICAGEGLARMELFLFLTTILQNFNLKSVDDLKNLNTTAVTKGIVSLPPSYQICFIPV

[4] = Absorption & efflux: Caco-2 permeability; conditions: human
A549 pERK = test: A549-pERK, 2 h (quantitative Western, Jess); format: cell-based; conditions: Homo sapiens, A549, 2 h, 10 nM, phospho:total ratio normalized to DMSO control
Method: as §1

[5] = Plasma stability, beagle dog; format: in vitro ADME; conditions: 2 μM
hERG Channel = hERG Channel (Homo sapiens, UniProt Q12809); test: cell-based
Sequence of hERG Channel (Q12809 whole entry): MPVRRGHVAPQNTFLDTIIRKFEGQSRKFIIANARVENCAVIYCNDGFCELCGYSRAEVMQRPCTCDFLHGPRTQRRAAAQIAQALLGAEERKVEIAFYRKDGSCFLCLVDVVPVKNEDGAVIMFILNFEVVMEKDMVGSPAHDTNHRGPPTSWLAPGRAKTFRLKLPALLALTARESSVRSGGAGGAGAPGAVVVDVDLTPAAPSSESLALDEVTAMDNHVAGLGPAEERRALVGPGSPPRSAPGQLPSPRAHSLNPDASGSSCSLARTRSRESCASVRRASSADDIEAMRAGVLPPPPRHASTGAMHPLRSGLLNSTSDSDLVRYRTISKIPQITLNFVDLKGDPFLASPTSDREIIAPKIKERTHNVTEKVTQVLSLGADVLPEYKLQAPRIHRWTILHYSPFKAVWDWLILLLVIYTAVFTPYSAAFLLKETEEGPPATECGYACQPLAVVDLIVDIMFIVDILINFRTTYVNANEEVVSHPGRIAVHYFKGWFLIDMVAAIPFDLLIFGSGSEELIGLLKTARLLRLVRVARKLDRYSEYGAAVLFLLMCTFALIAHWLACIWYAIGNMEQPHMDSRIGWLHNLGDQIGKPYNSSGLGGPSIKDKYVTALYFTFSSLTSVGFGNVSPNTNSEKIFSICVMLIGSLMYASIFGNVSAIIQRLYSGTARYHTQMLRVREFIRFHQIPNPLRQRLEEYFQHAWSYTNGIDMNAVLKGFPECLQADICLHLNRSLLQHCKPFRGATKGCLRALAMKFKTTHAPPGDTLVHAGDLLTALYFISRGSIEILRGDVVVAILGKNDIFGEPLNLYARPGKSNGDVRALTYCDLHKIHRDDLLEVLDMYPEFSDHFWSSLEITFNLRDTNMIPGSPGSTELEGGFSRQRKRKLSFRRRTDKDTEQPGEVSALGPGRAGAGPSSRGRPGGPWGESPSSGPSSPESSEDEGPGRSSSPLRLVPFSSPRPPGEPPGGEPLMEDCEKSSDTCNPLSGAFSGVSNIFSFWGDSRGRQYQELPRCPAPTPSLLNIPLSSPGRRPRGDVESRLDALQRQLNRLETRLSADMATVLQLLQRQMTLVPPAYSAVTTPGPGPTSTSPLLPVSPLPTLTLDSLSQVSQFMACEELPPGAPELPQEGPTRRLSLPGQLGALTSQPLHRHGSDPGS

[6] = Microsome stability, beagle dog; format: in vitro ADME; conditions: microsomes, 2 μM
CYP450 2B6 = biological target: T3, CYP450 2B6 (Homo sapiens, UniProt P20813); test: CYP450 panel, 2B6; conditions: 10 μM; substrate bupropion
T3 sequence (P20813 1-491): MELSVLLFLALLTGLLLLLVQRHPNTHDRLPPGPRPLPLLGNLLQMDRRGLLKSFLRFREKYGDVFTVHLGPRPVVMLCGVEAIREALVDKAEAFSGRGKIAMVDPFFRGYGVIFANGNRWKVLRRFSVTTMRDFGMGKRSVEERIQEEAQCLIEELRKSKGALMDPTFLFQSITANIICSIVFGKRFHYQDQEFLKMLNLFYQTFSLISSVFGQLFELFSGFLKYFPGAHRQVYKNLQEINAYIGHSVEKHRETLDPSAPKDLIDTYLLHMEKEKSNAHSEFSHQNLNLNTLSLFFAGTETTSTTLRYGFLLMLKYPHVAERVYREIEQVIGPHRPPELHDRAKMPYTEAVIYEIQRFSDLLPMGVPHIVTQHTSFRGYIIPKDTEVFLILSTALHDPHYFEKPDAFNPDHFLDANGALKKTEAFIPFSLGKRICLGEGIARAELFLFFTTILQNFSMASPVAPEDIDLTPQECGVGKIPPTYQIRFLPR

[7] = Microsome stability, CD-1 mouse; conditions: microsomes, 2 μM
[8] = Pharmacokinetics, single dose, 2-hour tissue levels in Colon26 tumor bearing mice; format: in vivo; conditions: single dose 100 mg/kg p.o., 2-hour post dose; for concentration at 2 h: female, athymic BALB/c nude or BALB/c, mouse, po
Method: Female mice (either athymic BALC/c nude, or BALB/c mice) were inoculated with a single subcutaneous injection of 0.2 ml of mouse Colon-26 cell suspension (1×10^5 cells per animal) in the inguinal region. Colon26 (C26) tumor bearing mice received a single dose (3 mice/treatment) of vehicle (10% DMSO/90% [20% SBE-β-CD in saline], pH 5) containing compounds at 100 mg/kg by gavage (p.o.) and 2-hour post dose humanely euthanized.
Blood was obtained through cardiac puncture into K+EDTA tubes, mixed by inversion and centrifuged to obtain the plasma. Tissues were excised, cleaned of surrounding tissues. All samples immediately snap frozen in liquid N2 prior to LC-MS/MS analysis (using Waters HSS T3 2.1×50 mm (1.8 um) LC column, and an API-6500 Electrospray MS unit).

[9] = Caco-2, A-B Permeability Ranking
[10] = Caco-2, Mean Papp A-B (10^−6 cm/s)

CNS(=O)(=O)Nc1cccc(Cc2c(CN3CCNCC3)c3ccc(OC(=O)N(C)C)cc3oc2=O)c1F [Compound 10]
1A2* (CYP450 1A2): 0.4
2C9* (CYP450 2C9): 1.8
3A4* (CYP450 3A4): 17.3
3A4^ (CYP450 3A4): 16.2
Human (% Reamining @1 hour) [1]: 80.1%
2C19* (CYP450 2C19): 4.8
activity at 0.1 µM [2]: 42.2%
Human (% Reamining @2 hour) (Plasma stability, human): 92.1%
2D6* (CYP450 2D6): −3.4
CD-1 Mouse (% Reamining @2 hour) [3]: 97.7%
2C8* (CYP450 2C8): −1.0
Papp B→A at 2 h, 10 μM [4]: 3.8 ×10⁻⁶ cm/s
efflux ratio at 2 h, 10 μM [4]: 56.3
Papp A→B at 2 h, 10 μM [4, 9]: < 1 ×10⁻⁶ cm/s
Papp A→B at 2 h, 10 μM [4, 10]: 0.0676 ×10⁻⁶ cm/s
activity at 0.01 µM (A549 pERK): 27.7%
Beagle Dog (% Reamining @2 hour) [5]: 96.2%
IC50 (hERG Channel): > 30 µM
Beagle Dog (% Reamining @1 hour) [6]: 73.9%
2B6* (CYP450 2B6): 22.4
CD-1 Mouse (% Reamining @1 hour) [7]: 91.3%

CNS(=O)(=O)Nc1cccc(Cc2c(CNC3CC3)c3ccc(OC(=O)N(C)C)cc3oc2=O)c1F [Compound 11]
1A2* (CYP450 1A2): 6.9
2C9* (CYP450 2C9): 12.9
3A4* (CYP450 3A4): 36.1
3A4^ (CYP450 3A4): 44.8
Human (% Reamining @1 hour) [1]: 28.9%
2C19* (CYP450 2C19): 9.7
Human (% Reamining @2 hour) (Plasma stability, human): 93.7%
2D6* (CYP450 2D6): 9.8
CD-1 Mouse (% Reamining @2 hour) [3]: 81.4%
2C8* (CYP450 2C8): 0.8
Papp B→A at 2 h, 10 μM [4]: 19.7 ×10⁻⁶ cm/s
efflux ratio at 2 h, 10 μM [4]: 2.15
Papp A→B at 2 h, 10 μM [4, 9]: > 1 ×10⁻⁶ cm/s
Papp A→B at 2 h, 10 μM [4, 10]: 9.18 ×10⁻⁶ cm/s
Beagle Dog (% Reamining @2 hour) [5]: 97.8%
IC50 (hERG Channel): 1.1 µM
Beagle Dog (% Reamining @1 hour) [6]: 4.9%
2B6* (CYP450 2B6): 12.1
CD-1 Mouse (% Reamining @1 hour) [7]: 7.0%

CNS(=O)(=O)Nc1cccc(Cc2c(CNc3ccn[nH]3)c3ccc(OC(=O)N(C)C)cc3oc2=O)c1F [Compound 12]
1A2* (CYP450 1A2): 13.0
2C9* (CYP450 2C9): 8.4
3A4* (CYP450 3A4): 29.2
3A4^ (CYP450 3A4): 31.9
Human (% Reamining @1 hour) [1]: 32.9%
2C19* (CYP450 2C19): 16.0
Human (% Reamining @2 hour) (Plasma stability, human): 100.5%
2D6* (CYP450 2D6): 4.5
CD-1 Mouse (% Reamining @2 hour) [3]: 86.6%
2C8* (CYP450 2C8): 2.4
Papp B→A at 2 h, 10 μM [4]: 17.9 ×10⁻⁶ cm/s
efflux ratio at 2 h, 10 μM [4]: 16.9
Papp A→B at 2 h, 10 μM [4, 9]: > 1 ×10⁻⁶ cm/s
Papp A→B at 2 h, 10 μM [4, 10]: 1.06 ×10⁻⁶ cm/s
Beagle Dog (% Reamining @2 hour) [5]: 102.6%
IC50 (hERG Channel): > 30 µM
Beagle Dog (% Reamining @1 hour) [6]: 42.8%
2B6* (CYP450 2B6): 14.9
CD-1 Mouse (% Reamining @1 hour) [7]: 28.2%

CNS(=O)(=O)Nc1cccc(Cc2c(CNCC#N)c3ccc(OC(=O)N(C)C)cc3oc2=O)c1F [Compound 13]
1A2* (CYP450 1A2): 6.5
2C9* (CYP450 2C9): −4.6
3A4* (CYP450 3A4): 25.7
3A4^ (CYP450 3A4): 34.9
Human (% Reamining @1 hour) [1]: 57.7%
2C19* (CYP450 2C19): 6.2
Human (% Reamining @2 hour) (Plasma stability, human): 87.3%
2D6* (CYP450 2D6): −2.6
CD-1 Mouse (% Reamining @2 hour) [3]: 87.1%
concentration at 2 h ([8]; liver, read-out: Liver): 36.6 ng/g
concentration at 2 h ([8]; tumor, read-out: Tumor): 26 ng/g
Muscle [8]: BQL
Plasma [8]: BQL
2C8* (CYP450 2C8): 6.2
Papp B→A at 2 h, 10 μM [4]: 20 ×10⁻⁶ cm/s
efflux ratio at 2 h, 10 μM [4]: 5.57
Papp A→B at 2 h, 10 μM [4, 9]: > 1 ×10⁻⁶ cm/s
Papp A→B at 2 h, 10 μM [4, 10]: 3.59 ×10⁻⁶ cm/s
Beagle Dog (% Reamining @2 hour) [5]: 95.9%
IC50 (hERG Channel): > 30 µM
Beagle Dog (% Reamining @1 hour) [6]: 69.6%
2B6* (CYP450 2B6): 15.8
CD-1 Mouse (% Reamining @1 hour) [7]: 16.8%
